Reference: ChEMBL document CHEMBL1131105, “Anthracene-9,10-diones as potential anticancer agents: bacterial mutation studies of amido-substituted derivatives reveal an unexpected lack of mutagenicity” (1998)

Columns and labels:
Format in all cases: functional, Salmonella enterica subsp. enterica serovar Typhimurium
Salmonella typhimurium [1] = assay: Bacterial mutagenicity was measured against Salmonella Typhimurium TA98 at dose range of 0-20 ug/plate
Salmonella typhimurium [2] = assay: Bacterial mutagenicity was measured against Salmonella Typhimurium TA97a at dose range of 0-400 ug/plate
Salmonella typhimurium [3] = assay: Bacterial mutagenicity was measured against Salmonella Typhimurium TA1538 at dose range of 0-200 ug/plate
Salmonella typhimurium [4] = assay: Bacterial mutagenicity was measured against Salmonella Typhimurium TA1538 at dose range of 0-5 ug/plate
Salmonella typhimurium [5] = assay: Bacterial mutagenicity was measured against Salmonella Typhimurium TA98 at dose range of 0-10 ug/plate

| Compound | Slope (Salmonella typhimurium [1]) [mutants ug-1] | Slope (Salmonella typhimurium [2]) [mutants ug-1] | Slope (Salmonella typhimurium [3]) [mutants ug-1] | Slope (Salmonella typhimurium [4]) [mutants ug-1] | Slope (Salmonella typhimurium [5]) [mutants ug-1] |
| --- | --- | --- | --- | --- | --- |
| C(=N\NC1=NCCN1)/c1c2ccccc2c(/C=N/NC2=NCCN2)c2ccccc12 [BISANTRENE] | 0.33 | 1.83 | 0.2 |  |  |
| O=C1c2c(O)ccc(O)c2C(=O)c2c(NCCNCCO)ccc(NCCNCCO)c21 [MITOXANTRONE] |  | 0.01 |  | 3.52 | 3.04 |
